Measurements: patent publication US20210047291A1, “PESTICIDALLY ACTIVE HETEROCYCLIC DERIVATIVES WITH SULFUR CONTAINING SUBSTITUENTS” (SYNGENTA PARTICIPATIONS AG, priority 2018, published 2021)

Tests used:
[1] = test system: Frankliniella occidentalis (Western Flower Thrips); experiment: Example B4: Frankliniella occidentalis feeding/contact activity, sunflower leaf discs; assay type: in vivo; details: foliar, 168 h, application rate of 200 ppm, mixed ages, 7 days after infestation
Description: (§1) Sunflower leaf discs were placed on agar in 24-well microtiter plates and sprayed with aqueous test solutions prepared from 10,000 DMSO stock solutions. After drying the leaf discs were infested with a Frankliniella population of mixed ages. The samples were assessed for mortality 7 days after infestation.

[2] = test system: Diabrotica Balteata (Corn Root Worm); experiment: Example B2: Diabrotica balteata, maize sprouts, L2 larvae; assay type: in vivo; details: Diabrotica balteata, 96 h, application rate of 200 ppm; L2 larvae; 4 days after infestation; read-out: effect in at least one of the two categories (mortality or growth inhibition)
Description: Maize sprouts placed onto an agar layer in 24-well microtiter plates were treated with aqueous test solutions prepared from 10,000 ppm DMSO stock solutions by spraying. After drying, the plates were infested with L2 larvae (6 to 10 per well). The samples were assessed for mortality and growth inhibition in comparison to untreated samples 4 days after infestation.

[3] = test system: Myzus persicae (Green peach aphid); experiment: Example B6: Myzus persicae systemic activity, pea seedlings; assay type: in vivo; details: for mortality at 24 ppm: Myzus persicae, 144 h, test rate of 24 ppm, mixed ages, 6 days after placing seedlings into test solutions, read-out: mortality; for mortality at 1.5 ppm: Concentration 1.5 ppm, Myzus persicae (systemic, Example B6), read-out: Mortality (%)
Description: Roots of pea seedlings infested with an aphid population of mixed ages were placed directly into aqueous test solutions prepared from 10,000 DMSO stock solutions. The samples were assessed for mortality 6 days after placing seedlings into test solutions.

[4] = test system: Plutella xylostella (Diamond Back Moth); experiment: Example B12: Plutella xylostella, artificial diet, eggs; assay type: in vivo; details: 192 h, application rate of 200 ppm, 8 days after infestation, read-out: effect in at least one of the two categories (mortality or growth inhibition)
Description: 24-well microtiter plates with artificial diet were treated with aqueous test solutions prepared from 10,000 ppm DMSO stock solutions by pipetting. After drying, Plutella eggs were pipetted through a plastic stencil onto a gel blotting paper and the plate was closed with it. The samples were assessed for mortality and growth inhibition in comparison to untreated samples 8 days after infestation. The following compounds gave an effect of at least 80% in at least one of the two categories (mortality or growth inhibition) at an application rate of 200 ppm: P46.

[5] = test system: Myzus persicae (Green peach aphid); experiment: Example B5: Myzus persicae feeding/contact activity, sunflower leaf discs; assay type: in vivo; details: foliar; for mortality at 200 ppm: Myzus persicae, 144 h, application rate of 200 ppm, mixed ages, 6 days after infestation, read-out: mortality
Description: Sunflower leaf discs were placed onto agar in a 24-well microtiter plate and sprayed with aqueous test solutions prepared from 10,000 ppm DMSO stock solutions. After drying, the leaf discs were infested with an aphid population of mixed ages. The samples were assessed for mortality 6 days after infestation.

[6] = test system: Euschistus heros (Neotropical Brown Stink Bug); experiment: Example B3: Euschistus heros, soybean leaves, N2 nymphs; assay type: in vivo; details: for percent effect (mortality or growth inhibition) at 200 ppm: Euschistus heros, 120 h, application rate of 200 ppm, N2 nymphs, 5 days after infestation, read-out: effect in at least one of the two categories (mortality or growth inhibition)
Description: Soybean leaves on agar in 24-well microtiter plates were sprayed with aqueous test solutions prepared from 10,000 ppm DMSO stock solutions. After drying the leaves were infested with N2 nymphs. The samples were assessed for mortality and growth inhibition in comparison to untreated samples 5 days after infestation.

[7] = test system: Tetranychus urticae (Two-Spotted Spider Mite); experiment: Example B10: Tetranychus urticae feeding/contact activity, bean leaf discs; assay type: in vivo; details: foliar, 192 h, application rate of 200 ppm, mixed population (mobile stages), 8 days after infestation
Description: Bean leaf discs on agar in 24-well microtiter plates were sprayed with aqueous test solutions prepared from 10,000 ppm DMSO stock solutions. After drying the leaf discs were infested with a mite population of mixed ages. The samples were assessed for mortality on mixed population (mobile stages) 8 days after infestation.

[8] = test system: Bemisia tabaci (Cotton White Fly); experiment: Example B1: Bemisia tabaci feeding/contact activity, cotton leaf discs; assay type: in vivo; details: foliar, 144 h, application rate of 200 ppm, adult white flies, 6 days after incubation
Description: Cotton leaf discs were placed on agar in 24-well microtiter plates and sprayed with aqueous test solutions prepared from 10,000 ppm DMSO stock solutions. After drying the leaf discs were infested with adult white flies. The samples were checked for mortality 6 days after incubation.

[9] = test system: Plutella xylostella (Diamond Back Moth); experiment: Example B7: Plutella xylostella, artificial diet, L2 larvae; assay type: in vivo; details: 120 h, application rate of 200 ppm, L2 larvae, 5 days after infestation, read-out: effect in at least one of the two categories (mortality or growth inhibition)
Description: 24-well microtiter plates with artificial diet were treated with aqueous test solutions prepared from 10,000 ppm DMSO stock solutions by pipetting. After drying, the plates were infested with L2 larvae (10 to 15 per well). The samples were assessed for mortality and growth inhibition in comparison to untreated samples 5 days after infestation.

[10] = test system: Myzus persicae (Green peach aphid); experiment: Example B20: Myzus persicae, mixed population, systemic into soil (drench), pea seedlings; assay type: in vivo; details: Concentration 0.2 ppm, MYZUPE (drench)
Description: Pea seedlings cultivated in field soil and infested 1 day before treatment with mixed aged aphid population were treated as drench application and checked for mortality 7 days after treatment.

[11] = test system: Myzus persicae (Green peach aphid); experiment: Example B19: Myzus persicae, mixed population, contact/feeding, pepper plants; assay type: in vivo; details: Concentration 3 ppm, MYZUPE (contact)
Description: Pepper plants were infested with mixed aged aphid population and were treated 1 day after infestation with diluted test solutions in a spray chamber. 5 days after treatment samples were assessed for mortality.

[12] = test system: Spodoptera littoralis (Egyptian Cotton Leaf Worm); experiment: Example B9: Spodoptera littoralis, cotton leaf discs (mortality, anti-feeding, growth inhibition); assay type: in vivo; details: foliar, 72 h, application rate of 200 ppm, L1 larvae, 3 days after infestation, read-out: control (mortality, anti-feeding effect or growth inhibition)
Description: Cotton leaf discs were placed onto agar in 24-well microtiter plates and sprayed with aqueous test solutions prepared from 10,000 ppm DMSO stock solutions. After drying the leaf discs were infested with five L1 larvae. The samples were assessed for mortality, anti-feeding effect, and growth inhibition in comparison to untreated samples 3 days after infestation. Control of Spodoptera littoralis by a test sample is given when at least one of the categories mortality, anti-feedant effect, and growth inhibition is higher than the untreated sample.

[13] = test system: Frankliniella occidentalis (Western Flower Thrips); experiment: Example B22: Frankliniella occidentalis, mixed population, contact/feeding, French bean plants; assay type: in vivo; details: Concentration 50 ppm, FRANOC (contact)
Description: French bean plants were treated with diluted test solutions in a spray chamber. After drying plants were infested with a mixed aged thrips population. 7 days after infestation, samples were assessed for mortality.

[14] = test system: Frankliniella occidentalis (Western Flower Thrips); experiment: Example B23: Frankliniella occidentalis, mixed population, systemic into soil (drench), French bean plants; assay type: in vivo; details: Concentration 3 ppm, FRANOC (drench)
Description: French bean plants cultivated in field soil, were treated via drench application and 1 day after treatment they were infested with mixed aged thrips population. 8 days after infestation samples were assessed for mortality and phytotoxicity symptoms.

[15] = test system: Nilaparvata lugens (Brown Plant Hopper); experiment: Example B21: Nilaparvata lugens, larvicide, feeding/contact, rice plants; assay type: in vivo; details: Concentration 3 ppm, NILALU (contact)
Description: Rice plants were treated with the diluted test solutions in a spray chamber. After drying plants were infested with ˜20 N3 nymphs. 7 days after the treatment samples were assessed for mortality and growth regulation.

Melodoigyne incognita = experiment: Example B14: Melodoigyne incognita juvenile mobility, in vitro profiling in 96 well plate; assay type: in vivo; details: 200 ppm; after 24 h; second stage juveniles; read-out: control (juvenile mobility)
Summary of the method: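 Second-stage juveniles (100–150 per well, freshly harvested) were exposed in triplicate to test solutions prepared at 1000, 200, 100, 50, 25 and 12.5 ppm before nematode suspension was added. Plates were kept 24 h at room temperature in the dark. Juvenile mobility was measured by imaging and compared with 12 untreated replicates.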

[16] = test system: Thrips tabaci (Onion Thrips); experiment: Example B11: Thrips tabaci feeding/contact activity, sunflower leaf discs; assay type: in vivo; details: foliar, 144 h, application rate of 200 ppm, mixed ages, 6 days after infestation
Description: as §1, with “10,000 ppm” for “10,000”, “thrips” for “Frankliniella”, “6” for “7”

Row | SMILES | mortality at 200 ppm [1] [%] | percent effect (mortality or growth inhibition) at 200 ppm [2] [%] | mortality at 24 ppm [3] [%] | mortality at 200 ppm [5] [%] | percent effect (mortality or growth inhibition) at 200 ppm [6] [%] | mortality at 200 ppm [7] [%] | mortality at 200 ppm [8] [%] | percent effect (mortality or growth inhibition) at 200 ppm [9] [%] | pest or weed control at 200 ppm (Melodoigyne incognita) [%] | melting point [°C] | also measured
1 | CCS(=O)(=O)c1cc(N(C(C)=O)C(C)C)cnc1-c1nc2cc(C(F)(F)F)ncc2n1C [P46, N-[5-ethylsulfonyl-6-[3-methyl-6-(trifluoromethyl)imidazo[4,5-c]pyridin-2-yl]-3-pyridyl]-N-isopropyl-acetamide] | ≥ 80 | ≥ 80 | ≥ 80 | ≥ 80 | ≥ 80 | ≥ 80 | ≥ 80 |  |  |  | percent effect (mortality or growth inhibition) at 200 ppm [4]: ≥ 80%
2 | CCS(=O)(=O)c1cc(N(C)C(C)=O)cnc1-c1nc2cc(C(F)(F)F)ncc2n1C [P6, N-[5-ethylsulfonyl-6-[3-methyl-6-(trifluoromethyl)imidazo[4,5-c]pyridin-2-yl]-3-pyridyl]-N-methyl-acetamide] | ≥ 80 | ≥ 80 | ≥ 80 | ≥ 80 | ≥ 80 | ≥ 80 | ≥ 80 | ≥ 80 | ≥ 80 |  | mortality at 0.2 ppm [10]: 92.5%; mortality at 3 ppm [11]: 70%; percent control (mortality, anti-feedant effect or growth inhibition) at 200 ppm [12]: ≥ 80%; mortality at 50 ppm [13]: 98%; mortality at 3 ppm [14]: 92.5%; mortality at 3 ppm [15]: 80%
3 | CCSc1cc(NC(=O)C2CC2)cnc1-c1nc2cc(C(F)(F)F)ncc2n1C [P1, N-[5-ethylsulfanyl-6-[3-methyl-6-(trifluoromethyl)imidazo[4,5-c]pyridin-2-yl]-3-pyridyl]cyclopropanecarboxamide] | ≥ 80 | ≥ 80 |  |  |  |  |  |  |  |  | mortality at 200 ppm [16]: ≥ 80%
4 | CCS(=O)(=O)c1ccc(N(C)C(C)=O)nc1-c1nc2cc(C(F)(F)F)ncc2n1C [reference compound] |  |  |  |  |  |  |  |  |  |  | mortality at 0.2 ppm [10]: 50%; mortality at 3 ppm [11]: 20%; mortality at 50 ppm [13]: 0%; mortality at 3 ppm [14]: 35%; mortality at 3 ppm [15]: 30%
5 | CCS(=O)(=O)c1cc(N2CCSCC2=O)cnc1-c1nc2cc(C(F)(F)F)ncc2n1C [P19, 4-[5-ethyslulfonyl-6-[3-methyl-6-(trifluoromethyl)imidazo[4,5-c]pyridin-2-yl]-3-pyridyl]thiomorpholin-3-one] |  |  |  |  |  |  |  |  | ≥ 80 | 211 to 213 | 
6 | CCSc1cc(NC(=O)C(C)(C)O)cnc1-c1nc2cc(C(F)(F)F)ncc2n1C [P7, N-[5-ethylsulfanyl-6-[3-methyl-6-(trifluoromethyl)imidazo[4,5-c]pyridin-2-yl]-3-pyridyl]-2-hydroxy-2-methyl-propanamide] |  |  |  |  |  |  |  |  |  | 195 to 196 | 
7 | CCS(=O)(=O)c1cc(NC(=O)C2CC2)cnc1-c1nc2cc(C(F)(F)F)ncc2n1C [P2, N-[5-ethylsulfonyl-6-[3-methyl-6-(trifluoromethyl)imidazo[4,5-c]pyridin-2-yl]-3-pyridyl]cyclopropanecarboxamide] | ≥ 80 | ≥ 80 | ≥ 80 | ≥ 80 | ≥ 80 |  |  | ≥ 80 |  |  | mortality at 1.5 ppm [3]: 80%; mortality at 200 ppm [16]: ≥ 80%
8 | CCS(=O)(=O)c1cc(N2CCSC2=O)cnc1-c1nc2cc(C(F)(F)F)ncc2n1C [P45, 3-[5-ethylsulfonyl-6-[3-methyl-6-(trifluoromethyl)imidazo[4,5-c]pyridin-2-yl]-3-pyridyl]thiazolidin-2-one] |  | ≥ 80 | ≥ 80 | ≥ 80 | ≥ 80 | ≥ 80 | ≥ 80 | ≥ 80 | ≥ 80 |  | mortality at 1.5 ppm [3]: 50%; mortality at 12.5 ppm ([5]; Concentration 12.5 ppm, Myzus persicae (feeding/contact, Example B5), read-out: Mortality (%)): 80%; mortality at 50 ppm ([6]; Concentration 50 ppm, Euschistus heros (Example B3), read-out: Mortality (%)): 100%; percent control (mortality, anti-feedant effect or growth inhibition) at 200 ppm [12]: ≥ 80%
9 | CCS(=O)(=O)c1cc(NC(=O)C(F)(F)F)ccc1-c1nc2cc(C(F)(F)F)ncc2n1C [P3, N-[3-ethylsulfonyl-4-[3-methyl-6-(trifluoromethyl)imidazo[4,5-c]pyridin-2-yl]phenyl]-2,2,2-trifluoro-acetamide] |  |  |  |  |  |  |  |  |  | 260 | 
